Measurements taken from paper PMC12040169 (PLOS Biology, 2025).

Assay: in vitro
Conditions: human, hela cells, % viability

| Compound | viability at 28.5 h, 10 µM [%] |
| --- | --- |
| CC(=O)Nc1ccc(-c2nc3ccc(-c4ccc5nc(-c6ccc(NC(C)=O)cc6)oc(=O)c5c4)cc3c(=O)o2)cc1 [CBK261391] | 107 |
| O=C(O)c1ccc(NC(S)=NC(NC(=O)c2ccco2)C(Cl)(Cl)Cl)cc1 (stereo not shown) [CBK261025] | 96.2 |
| CCCn1cnc2sc(C(=O)O)c(C)c2c1=O [CBK287199] | 96 |
| O=C1Nc2ccccc2S(=O)(=O)N2CCCC12 (stereo not shown) [CBK282864] | 112 |
| COc1ccc(-c2nc(NC(=O)Cc3ccc(S(C)(=O)=O)cc3)cnc2-c2cccc(C)c2)cc1 [CBK037525] | 88.2 |
| CCc1cccc2c(CC(=O)NCCn3ccc(C)n3)c(C)[nH]c12 [CBK282698] | 105 |
| Cc1nc(-c2cc3c(s2)CCN(CC(O)COCc2ccco2)C3)cs1 (stereo not shown) [CBK304460] | 89.4 |
| CC(C)(C)C(=O)CN1CCC2(CC1)OCCc1c2[nH]c2ccc(F)cc12 [CBK040237] | 95.8 |
| C[C@]12CN(C3CCSC3)C[C@H]1C(=O)Nc1ccccc1C(=O)N2 (stereo partly shown) [CBK284788] | 90.8 |
| CC(C)CC(NC(=O)C1CCC(C)CC1)C(=O)O (stereo not shown) [CBK287212] | 88.2 |
| COc1ccc(S(=O)(=O)NC[C@H]2C[C@@H]3CC[N@]2C[C@@H]3CN2CCSCC2)cc1 [CBK288769] | 86.6 |
| O=C(CSc1nnc(-c2ccccc2)n1C1CCCCC1)Nc1ccc(Cl)cc1Cl [CBK267424] | 100 |
| CCn1cc(C2CN(S(=O)(=O)c3sc(C)nc3C)CCO2)cn1 (stereo not shown) [CBK305420] | 96.8 |
| CCc1nnc(SCC(=O)N2c3ccccc3Sc3ccccc32)[nH]1 [CBK268687] | 110 |
| N#Cc1nc(-c2ccco2)oc1N1CCN(C(=O)c2cc3c(s2)CCCCC3)CC1 [CBK240763] | 93.9 |
| Cc1noc(N)c1C1OC(=O)c2ccccc21 (stereo not shown) [CBK022932] | 104 |
| Cc1cc(=O)oc2cc(NC(=S)N3CCN(C/C=C/c4ccccc4)CC3)ccc12 [CBK267045] | 92 |
| COc1cc(OC)cc(C(=O)Nc2ccc(S(=O)(=O)Nc3nccs3)cc2)c1 [CBK261300] | 103 |
| COc1cc(NC(=O)Cn2c(-c3cncs3)nc3ccccc32)cc(OC)c1OC [CBK267640] | 97.2 |
| O=C(Nc1ccccc1)O[C@@H]1CO[C@H]2[C@@H]1OC[C@@H]2NC(=O)C1CC1 [CBK289464] | 88 |
| Cn1cc(CCCC(=O)NC2CCCOC2)c2ccccc21 (stereo not shown) [CBK282486] | 81.8 |
| CC(=O)c1ccc(-c2ccc(C(=O)NCCc3ccc(S(N)(=O)=O)cc3)c(N(C)C(C)=O)n2)s1 [CBK076621] | 91.9 |

| Compound | viability at 28.5 h, 10 µM [%] |
| --- | --- |
| CN1CCC(N(C)C(=O)Nc2cccnc2)C1 (stereo not shown) [CBK156026] | 93.8 |
| CCOC(=O)C1=C(C(=O)OCC)SC(=C2C(=S)C(C)(C)N(C(=O)c3ccc4ccccc4c3)c3ccccc32)S1 [CBK261643] | 103 |
| COCCCNC(=O)Cn1c(-c2cccs2)cc2cccnc21 [CBK282559] | 87.2 |
| Cn1c(=O)[nH]c(=O)c2c1nc(CN1CCOCC1)n2CCc1ccccc1 [CBK269910] | 88 |
| CC(C)CC(CC(C)C)OCC(=O)NCC1(c2ccc3ccccc3c2)CCC1 [CBK067404] | 109 |
| O=C(NCC(c1cccnc1)N1CCOCC1)c1cnc(-c2ccc(Cl)cc2)c(-c2ccco2)c1 (stereo not shown) [CBK037554] | 100 |
| C[C@H](Nc1nc(-c2cccc(C(=O)NCCN(C)C)c2)cnc1N)c1ccccc1 [CBK063714] | 112 |
| Cc1cc(Br)ccc1C(=O)Nc1ccc2ncccc2c1 [CBK159814] | 92.1 |
| O=C(Nc1ccc2c(c1)C1C=CCC1C(C(=O)O)N2)c1ccc(Cl)cc1Cl (stereo not shown) [CBK112584] | 105 |
| CCOc1ccc2nc(NC(=O)CC)sc2c1 [CBK287295] | 107 |
| O=[N+]([O-])c1ccc(CN2CCN(Cc3c[nH]c4ccccc34)CC2)cc1 [CBK218620] | 92.3 |
| COc1ccc(NC(=O)CC(C(=O)O)N2CCCCC2)cc1 (stereo not shown) [CBK267115] | 101 |
| CCc1nc2c(Oc3nc4ccccc4s3)cccn2c1N(C=O)Cc1ccc(OC)cc1 [CBK147819] | 107 |
| Cc1c(Cl)cccc1NC(=O)CSCc1cc(=O)[nH][nH]1 [CBK268199] | 98.1 |
| Cc1ccc2nsnc2c1NC(=O)CSc1nccn1C [CBK269411] | 104 |
| CC(C)CC12CN3CCN(CC(C3)/C1=N\N=C1/C3CN4CCN(C3)CC1(CC(C)C)C4)C2 [CBK265036] | 99.1 |
| COc1ccc2c(c1)C1(CC(=O)N(C)C1=O)C(=O)N2C (stereo not shown) [CBK075146] | 115 |
| CN(C)c1ccc(Nc2ncnc3c2cnn3CCC#N)cn1 [CBK306231] | 103 |
| O=C(Cn1cccn1)NCC(c1ccccc1Cl)N1CCOCC1 (stereo not shown) [CBK305593] | 93.1 |
| O=C(O)CN(CC(=O)O)S(=O)(=O)c1ccc(Cl)cc1 [CBK261526] | 92.2 |
| S=c1cc(SCc2ccccc2Cl)nc[nH]1 [CBK288496] | 95.2 |
| Cc1ccc(C(=O)CN2CCCC3(C2)NCCc2c3[nH]c3c(C)cccc23)cc1 (stereo not shown) [CBK039546] | 96 |

| Compound | viability at 28.5 h, 10 µM [%] |
| --- | --- |
| CN1CCN(S(=O)(=O)c2ccc(N3CCOCC3)nc2)CC1 [CBK062434] | 87.9 |
| COc1cccc(CC2(C#N)CC2)c1 [CBK003907] | 87.5 |
| O=C(Cn1c(C2CCOCC2)cc2cccnc21)NC1CCCC1 [CBK285157] | 86.3 |
| CC1=NN(c2ccc(Cl)cc2)C(=O)/C1=C\Nc1nnn[nH]1 [CBK262407] | 91 |
| O=S(=O)(Cc1ccc(Cl)cc1)N1CCN(Cc2ccc3c(c2)OCO3)CC1 [CBK074827] | 101 |
| Cc1nc(C)n(CC2CCCCN2Cc2cn3ccccc3c2C#N)n1 (stereo not shown) [CBK306102] | 85.1 |
| S=C(Nc1ccccc1Cl)Nc1ccccc1-n1cccc1 [CBK018806] | 81.6 |
| COc1ccc2c(c1)c(C)c(C(=O)N1CCCCC1CN(C)C)n2C (stereo not shown) [CBK282190] | 90.1 |
| Cc1ccc(S(=O)(=O)NC(CC(=O)O)c2ccccc2)cc1 (stereo not shown) [CBK261307] | 105 |
| Nc1nc(OCCOc2ccccc2)cnc1-c1ccsc1 [CBK145163] | 109 |
| c1ccc2c(c1)/C(=N/OCCCN1CCCCC1)CC21CCCCC1 [CBK013321] | 108 |
| CCC(CO)Nc1nccnc1-c1cccc(F)c1 (stereo not shown) [CBK036775] | 108 |
| COc1ccccc1-c1ccc(Nc2ccccc2)nc1 [CBK036909] | 85.4 |
| CCOC(=O)C1(Cc2ccccc2-c2ccncc2)CCNCC1 [CBK282297] | 88.8 |
| CN(C)c1ccc(-c2nccnc2NCC(O)COc2ccccc2)cc1 (stereo not shown) [CBK036928] | 103 |
| N#CCCCN1CCC(Oc2nccnc2OCc2c(F)cccc2Cl)CC1 [CBK153630] | 102 |
| NNC(=O)Cn1c(-c2ccccn2)nc2ccccc21 [CBK263489] | 108 |
| O=C(NCCCN1CCOCC1)c1nn2c(C(F)(F)F)cc(-c3cccs3)nc2c1Cl [CBK262553] | 82 |
| O=c1c(Cc2ccccc2)c(O)c2ccccc2n1Cc1ccccc1 [CBK219368] | 85.8 |
| CC(=O)Nc1ccc(CNC(=O)c2cccnc2OCC(F)(F)F)cc1 [CBK305682] | 91.5 |
| COc1ccc([N+](=O)[O-])cc1CSc1nnc(-c2ccco2)n1C [CBK269671] | 89.3 |
| O=C(Cc1cccs1)N1CCC(O)(c2ccccn2)CC1 [CBK283587] | 96.4 |

| Compound | viability at 28.5 h, 10 µM [%] |
| --- | --- |
| OC(COc1cccc2c1CCCC2)CN1CCC(O)(c2ccccc2)CC1 (stereo not shown) [CBK003585] | 87.3 |
| CC(C)(CO)CNc1cncc(-c2cccs2)n1 [CBK065599] | 88.3 |
| Oc1cccc2c1CC(NCC(F)(F)C(F)(F)F)CC2 (stereo not shown) [CBK007596] | 96.5 |
| Cc1ccc(C(=O)N2CCC(CO)CC2)cc1C [CBK083532] | 93.8 |
| Cc1cc(C(=O)Nc2nnc[nH]2)ccc1[N+](=O)[O-] [CBK264719] | 99.7 |
| CCOC(=O)CN1CCN(c2nccnc2OCCN2CCOCC2)CC1 [CBK082897] | 93.9 |
| CCOC(=O)CSc1nnc(-c2ccncc2)n1-c1ccccc1 [CBK263350] | 92 |
| CN(CC(=O)N1CCCCCC1)S(=O)(=O)c1cc(Cl)ccc1Cl [CBK091841] | 92.4 |
| Cc1sc2ncnc(SCC(=O)Nc3sc4c(c3C#N)CCCC4)c2c1-c1ccccc1 [CBK265938] | 93.3 |
| CN(C)c1ccc(C=Nc2ccc(NC(=O)CCC(=O)O)cc2)cc1 [CBK296091] | 92 |
| O[C@@H]1C[C@@H](c2nc(-c3ccccn3)no2)N(Cc2ccccc2)C1 [CBK288900] | 81.3 |
| CC(C)[C@@H](Cn1nnc2ccccc21)NC(=O)c1ccco1 [CBK282335] | 108 |
| Cc1nc(CCNC(=O)N2CCC(Oc3cccnc3)CC2)sc1Cl [CBK306636] | 93.8 |
| O=c1oc2ccccc2c(O)c1Cc1c(O)c2ccccc2oc1=O [CBK016703G] | 74 |
| COc1cccc2[nH]c(C(=O)N3CCOC(c4cccc(-c5c(F)cccc5F)n4)C3)cc12 (stereo not shown) [CBK285948] | 110 |
| Fc1ccc(Sc2ccc(C(F)(F)F)cn2)cc1 [CBK115235] | 106 |
| CNC(=O)CSc1nnc2[nH]c(=O)c(C)c(C)n12 [CBK287687] | 108 |
| CCn1cc(S(=O)(=O)NC2CCc3[nH]c4ccc(C)cc4c3C2)cn1 (stereo not shown) [CBK304790] | 99.7 |
| Nc1ccc(-c2nnn(CC(=O)NC3CCCCC3)n2)cc1 [CBK135771] | 86.7 |

Same assay, conditions: human, hela cells, % viability, bulk resorufin, single well

| Compound | viability at 28.5 h, 10 µM [%] |
| --- | --- |
| CC(C)(C)OC(=O)N1CCC2(CC1)OCc1cc(-c3cccc(OCC(=O)Nc4ccccc4)c3)ccc1O2 [CBK105255] | 99.6 |
| O=C(Nc1ccc(NC(=O)c2cccc([N+](=O)[O-])c2)c(Cl)c1)c1cccc([N+](=O)[O-])c1 [CBK261196] | 105 |
| Cc1cccc(N2C(=O)NC(=O)C(CCc3ccncc3)(CCc3ccncc3)C2=O)c1 [CBK264898] | 96.3 |
